From US5156955A, “Nucleoside oxidase and assay method utilizing same” (priority 1988, dated 1992)
Read-outs that look alike come from different tables or passages of the source.

Assays:
[1] = tested on: nucleoside oxidase YT-1; assay: Substrate specificity test (nucleoside oxidase activity, oxygen consumption); format: biochemical, Pseudomonas maltophilia LB-86; details: for Relative activity: relative to activity on inosine taken as 100; for Substrate specificity (enzyme active / not active on substance): statement in words
Description: (§1) The consumption of 1 μM of oxygen per minute is taken as 1 unit (U).

[2] = tested on: nucleoside oxidase YT-1; assay: Specificity test on laccase substrate (laccase-like activity in presence of inosine); format: biochemical, Pseudomonas maltophilia LB-86; details: 1 mM laccase substrate, 7 mM inosine, one unit enzyme, 5 minutes
Description: The present enzyme was tested for the substrate specificity of its laccase-like activity in the presence of 7 mM inosine in the following manner. One unit of the present enzyme was added to a specimen containing 7 mM of inosine and 1 mM of the laccase substrate shown in Table 5, and the mixture was allowed to stand for 5 minutes. The absorption spectrum of the specimen was obtained before and after the addition of the enzyme.

[3] = tested on: nucleoside oxidase YT-1; assay: Km value; format: biochemical, Pseudomonas maltophilia LB-86; details: read-out: apparent Km value
Description: as §1

[4] = tested on: nucleoside oxidase YT-1; assay: Enzymatic activity test I: oxidation reaction products and stoichiometry; format: biochemical, Pseudomonas maltophilia LB-86; details: for oxygen consumption: 1 ml 100 mM phosphate buffer; for change on reaction with the enzyme sample (HPLC): peak separated off by HPLC and reacted with enzyme
Description: During a reaction period of 0 to 800 minutes, the reaction muxture was partly collected at suitable time intervals and analyzed by high performance liquid chromatography (HPLC) with a column of Fine SIL C18 (product of Japan Spectroscopic Co., Ltd.) using as a solvent 50 mM phosphate buffer (pH 3.0)/methanol=95/5 at a flow rate of 1.5 ml/min. Absorption was detected at 260 nm.
The amount of oxygen consumption was determined by an oxygen electrode, the amount of P-2 produced from the peak area of HPLC, and the amount of hydrogen peroxide by the phenol-4-aminoantipyrine peroxidase method and the ferrithiocyanide method (Ronald Thurman et al., Eur. J. Biochem., 25, 420-430 (1972)).

[5] = tested on: nucleoside oxidase YT-1; assay: Influence of metal ions on the activity; format: biochemical, Pseudomonas maltophilia LB-86; details: enzyme 0.02 U on inosine, pH 6.0, 25° C., 10 minutes
Description: A solution of the enzyme (0.02 U) was caused to act on inosine at pH 6.0 and 25° C. for 10 minutes in the presence of various metal ions, and the activity of the enzyme was thereafter measured to check the influence of the metal ions on the activity.

[6] = tested on: nucleoside oxidase YT-1; format: biochemical, Pseudomonas maltophilia LB-86; details: for Effect of inhibitor (enzyme inhibited): statement in words
Description: A solution of the present enzyme (0.02 U) was caused to act on inosine at pH 6.0 and 25° C. for 10 minutes in the presence of various inhibitors, and the enzymatic activity was thereafter measured.

[7] = tested on: nucleoside oxidase YT-1; details: for Amount of oxygen consumption / Amount of p-quinone formed: 0.06 μM inosine
[8] = inhibitor 1 mM, enzyme 0.02 U on inosine, pH 6.0, 25° C., 10 minutes
[9] = nucleoside oxidase yt-1, pH 6, 10 min, 1000 µM
[10] = inhibitor 10 mM, enzyme 0.02 U on inosine, pH 6.0, 25° C., 10 minutes
[11] = 0.02 μM 1,4-hydroquinone, 1 U enzyme, pH 7.0
[12] = 0.06 μM 1,4-hydroquinone, 1 U enzyme, pH 7.0
[13] = 0.60 μM 1,4-hydroquinone, 1 U enzyme, pH 7.0

For `Nc1nc2c(ncn2[C@@H]2O[C@H](COP(=O)(O)O)[C@@H](O)[C@H]2O)c(=O)[nH]1` [5'-GMP], the Relative activity ([1]; substrate 10 mM) was 0%.
With `Cc1cn([C@H]2C[C@H](O)[C@@H](CO)O2)c(=O)[nH]c1=O` [Deoxythymidine] the Relative activity ([1]; substrate 10 mM) was 77.3%.
Compound `Nc1ccn([C@@H]2O[C@H](CO)[C@@H](O)[C@H]2O)c(=O)n1` [Cytidine] has a Relative activity ([1]; substrate 10 mM) of 77.5%.
With `Nc1ccc(O)cc1` [p-Aminophenol] the “Change in absorption spectrum due to reaction” value (from here on “Change … to reaction”) [2] was “New peak at 360 nm”.
`OC[C@H]1O[C@@H](n2cnc3c(O)ncnc32)[C@H](O)[C@@H]1O` [Inosine] was tested, and the “Substrate specificity (enzyme active / not active on substance)” value [1] was “Active”, the Relative activity ([1]; substrate 10 mM) was 100% and the Km [3] was 44 µM. For the same compound, the hydrogen peroxide formed ([4]; 50 nanomoles of inosine as substrate) was “No hydrogen peroxide was detected”, the oxygen consumption ([4]; 50 nanomoles of inosine, one U enzyme) was 51 nmol and the P-2 produced ([4]; from 50 nanomoles of inosine, one U enzyme) was 47 nmol.
Compound `O=S(=O)([O-])[O-].[Fe+2]` [FeSO4] has a Relative activity ([5]; metal salt 0.1 mM) of 93.4%.
In the case of `O=C(O)/C=C/c1ccc(O)c(O)c1` [Caffeic acid], the “Change … to reaction” value [2] is reported as “New peak at 310 nm”.
`[Cl][Hg][Cl]` [HgCl2] gave a Relative activity [6, 8] of 69.2%.
Mercury p-chorobenzoate gave a Relative activity [6, 8] of 98.9%.
In the case of `O=S(=O)([O-])[O-].[Mg+2]` [MgSO4], the Relative activity ([5]; metal salt 0.1 mM) is reported as 102%.
In the case of `Cc1cn([C@H]2C[C@H](O)[C@@H](CO)O2)c(=O)[nH]c1=O` [Thymidine], the Relative activity ([1]; substrate 10 mM) is reported as 55.8%.
For `Nc1cc[nH]c(=O)n1` [Cytosine], the Relative activity ([1]; substrate 20 mM) was 0%.
With `O=c1[nH]c(=O)c2ncn([C@@H]3O[C@H](CO)[C@@H](O)[C@H]3O)c2[nH]1` [Xanthosine] the Relative activity ([1]; substrate 10 mM) was 125%.
`O=C[C@H]1O[C@@H](n2cnc3c(=O)[nH]cnc32)[C@H](O)[C@@H]1O` [P-1, inosine-5'-aldehyde] was tested, and the oxygen consumption ([4]; 100 nanomoles of P-1, one U enzyme) was 48 nmol, the hydrogen peroxide formed ([4]; 100 nanomoles of P-1 as substrate) was “No hydrogen peroxide was detected” and the P-2 produced ([4]; from 100 nanomoles of P-1, one U enzyme) was 97 nmol. For the same compound, the “change on reaction with the enzyme sample (HPLC)” value [4] was “changed into P-2 with consumption of oxygen”.
`O=C(O)CN(CCN(CC(=O)O)CC(=O)O)CC(=O)O` [EDTA] was tested, and the Relative activity [6, 9] was 101%.
In the case of `Nc1nc2c(ncn2[C@@H]2O[C@H](CO)[C@@H](O)[C@H]2O)c(=O)[nH]1` [Guanosine], the Relative activity ([1]; substrate 10 mM) is reported as 121%.
`O=c1ccn([C@@H]2O[C@H](CO)[C@@H](O)[C@H]2O)c(=O)[nH]1` [Uridine] showed a Relative activity ([1]; substrate 10 mM) of 92.8%.
`Cc1c[nH]c(=O)[nH]c1=O` [Thymine] showed a Relative activity ([1]; substrate 20 mM) of 0%.
`c1ccc(-c2ccccn2)nc1` [α,α'-Dipyridyl] showed a Relative activity [6, 8] of 96.7%.
In the case of `O=c1[nH]c(=O)c2[nH]cnc2[nH]1` [Xanthine], the Relative activity ([1]; substrate 0.4 mM) is reported as 0%.
`O=C[C@H](O)[C@H](O)[C@H](O)CO` [D-ribose] was tested, and the “Substrate specificity (enzyme active / not active on substance)” value [1] was “not active” and the Relative activity ([1]; substrate 20 mM) was 0%.
In the case of `[N-]=[N+]=[N-]` [Sodium azide], the Relative activity [6, 8] is reported as 81.5%, the Relative activity [6, 10] is reported as 45.6% and the “Effect of inhibitor (enzyme inhibited)” value [6] is reported as “inhibited”.
Compound `Nc1ncnc2nc[nH]c12` [Adenine] has a Relative activity ([1]; substrate 10 mM) of 0%.
In the case of `O=c1[nH]cnc2nc[nH]c12` [Hypoxanthine], the “Substrate specificity (enzyme active / not active on substance)” value [1] is reported as “not active” and the Relative activity ([1]; substrate 5.2 mM) is reported as 0%.
Work on (NH4)6 Mo7 O24 yielded a Relative activity ([5]; metal salt 0.1 mM) of 106% and a Relative activity ([5]; metal salt 1.0 mM) of 102%.
Work on `CCN(CC)CCCC(C)Nc1c2ccc(Cl)cc2nc2ccc(OC)cc12` (centres unmarked) [Quinacrine] yielded a Relative activity [6, 8] of 95.6%.
`O=C(O)CI` [Iodoacetic acid] gave a Relative activity [6, 9] of 100%.
Work on `CCN(CC)C(=S)S` [Sodium N,N'-Diethylditiocarbamate, Sodium N,N'-Diethylditio-carbamate] yielded a Relative activity [6, 8] of 271%.
Compound `O=S(=O)([O-])[O-].[Mn+2]` [MnSO4] has a Relative activity ([5]; metal salt 0.1 mM) of 103%.
For `O=C1CCC(=O)N1Br` [N-Bromosuccinimide], the Relative activity [6, 8] was 0% and the “Effect of inhibitor (enzyme inhibited)” value [6] was “inhibited”.
`NO` [Hydroxylamine] showed a Relative activity [6, 8] of 87.8% and a Relative activity [6, 10] of 63.2%.
For `O=P(O)(O)OC[C@H]1OC(O)[C@H](O)[C@@H]1O` (stereo partly drawn) [D-ribose-5-phosphoric acid], the Relative activity ([1]; substrate 20 mM) was 0%.
`OC[C@H]1O[C@@H](n2cnc3c(O)ncnc32)C[C@@H]1O` [Deoxyinosine] gave a Relative activity ([1]; substrate 10 mM) of 80.7%.
In the case of `Oc1cccc(O)c1O` [Pyrogallol], the “Change … to reaction” value [2] is reported as “New peak at 370 nm”.
With `[Cl-].[Cl-].[Co+2]` [CoCl2] the Relative activity ([5]; metal salt 0.1 mM) was 103%.
`Nc1ncnc2c1ncn2[C@@H]1O[C@H](CO)[C@@H](O)[C@H]1O` [Adenosine] showed a Relative activity ([1]; substrate 10 mM) of 97.3%.
With `O=CC[C@H](O)[C@H](O)CO` [2-Deoxy-D-ribose] the Relative activity ([1]; substrate 20 mM) was 0%.
With `NN.O=S(=O)(O)O` [Hydrazine sulfate] the Relative activity [6, 8] was 101%.
Work on `O=c1cc[nH]c(=O)[nH]1` [Uracil] yielded a Relative activity ([1]; substrate 20 mM) of 0%.
`Nc1nc2c(ncn2[C@H]2C[C@H](O)[C@@H](CO)O2)c(=O)[nH]1` [Deoxyguanosine] showed a Relative activity ([1]; substrate 10 mM) of 92.3%.
Compound `CC(=O)[O-].CC(=O)[O-].[Pb+2]` [Pb(CH3 COO)2] has a Relative activity [6, 8] of 81.3%.
For `Oc1ccc(O)cc1` [1,4-Hydroquinone], the “Change … to reaction” value [2] was “New peak at 243 nm”, the “Amount of oxygen consumption” value [7, 11] was 0.069 µM and the “Amount of p-quinone formed” value [7, 11] was 0.019 µM. For the same compound, the “Amount of oxygen consumption” value [7, 12] was 0.089 µM, the “Amount of p-quinone formed” value [7, 12] was 0.060 µM and the “oxygen used for oxidizing 1,4-hydroquinone” value ([7]; 0.115 μM minus 0.06 μM used for inosine, 0.12 μM 1,4-hydroquinone) was 0.055 µM. For the same compound, the “Amount of p-quinone formed” value ([7]; 0.12 μM 1,4-hydroquinone, 1 U enzyme, pH 7.0) was 0.115 µM, the “Amount of oxygen consumption” value ([7]; 0.12 μM 1,4-hydroquinone, 1 U enzyme, pH 7.0 (Table 3)) was 0.112 µM and the “Amount of oxygen consumption” value ([7]; 0.12 μM 1,4-hydroquinone, room temperature, 10 minutes (stoichiometry test)) was 0.115 µM. The “Amount of oxygen consumption” value [7, 13] was 0.115 µM, the “Amount of p-quinone formed” value [7, 13] was 0.119 µM and the “laccase reaction without nucleoside” value ([7]; enzyme mixed with laccase substrate, no nucleoside present) was “no reaction occurs”.
With `Nc1nc2nc[nH]c2c(=O)[nH]1` [Guanine] the Relative activity ([1]; substrate 0.4 mM) was 0%.
`O=S(=O)([O-])[O-].[Zn+2]` [ZnSO4] showed a Relative activity ([5]; metal salt 0.1 mM) of 106% and a Relative activity ([5]; metal salt 1.0 mM) of 98.9%.
`c1cnc2c(c1)ccc1cccnc12` [o-Phenanthroline] was tested, and the Relative activity [6, 8] was 94.7%.
`Nc1ncnc2c1ncn2[C@@H]1O[C@H](COP(=O)(O)OP(=O)(O)O)[C@@H](O)[C@H]1O` [5'-ADP] showed a Relative activity ([1]; substrate 10 mM) of 0%.
`Nc1ncnc2c1ncn2[C@@H]1O[C@H](COP(=O)(O)O)[C@@H](O)[C@H]1O` [5'-AMP, 5'-adenosine monophosphate] was tested, and the Relative activity ([1]; substrate 10 mM) was 0%.
In the case of `Nc1ccc(N)cc1` [p-Phenylendiamine], the “Change … to reaction” value [2] is reported as “New peak at 490 nm”.
`O=S(=O)(F)Cc1ccccc1` [Phenylmethylsulfonyl fluoride] showed a Relative activity [6, 8] of 95.3%.
`Nc1ncnc2c1ncn2[C@H]1C[C@H](O)[C@@H](CO)O1` [Deoxyadenosine] was tested, and the Relative activity ([1]; substrate 10 mM) was 81.4%.
With `N#CO` [Potassium cyanate] the Relative activity [6, 8] was 34.8%, the Relative activity [6, 10] was 0% and the “Effect of inhibitor (enzyme inhibited)” value [6] was “inhibited”. The “Effect of inhibitor (enzyme inhibited)” value ([6]; listed as potassium cianate) was “Inhibited”.
Compound `Nc1ncnc2c1ncn2[C@@H]1O[C@H](COP(=O)(O)OP(=O)(O)OP(=O)(O)O)[C@@H](O)[C@H]1O` [5'-ATP] has a Relative activity ([1]; substrate 10 mM) of 0%.
In the case of `O=P(O)(O)OC1O[C@H](CO)[C@@H](O)[C@H]1O` (stereo partly drawn) [D-ribose-1-phosphoric acid], the Relative activity ([1]; substrate 20 mM) is reported as 0%.
For `O=C(O)[C@H]1O[C@@H](n2cnc3c(=O)[nH]cnc32)[C@H](O)[C@@H]1O` [P-2, inosine-5'-carboxylic acid], the “change on reaction with the enzyme sample (HPLC)” value [4] was “exhibited no change”.
With `Cc1cc(O)cc(O)c1` [Orcinol] the “Change … to reaction” value [2] was “New peak at 340 nm”.
With `O=C1C=CC(=O)C=C1` [p-Quinone] the “Change … to reaction” value [2] was “No change”.
